Measurements taken from US5783575A, “Antagonists, their preparation and use” (Novo Nordisk A/S, priority 1994, dated 1998).
Like-named read-outs stand apart in the source and are kept apart here.

Tests used:
NMDA-induced responses = conditions: a number of preparations; cited from earlier work
mGluR1a [1] = target: T1, mGluR1a (Rattus norvegicus, UniProt P23385); conditions: BHK cells expressing mGluR1a, Thomsen and Suzdak 1993; cited from earlier work
T1 construct: expressed in transfected cells; host or cells: BHK 570 (baby hamster kidney) cells

mGluR1a [2] = target: T1, mGluR1a; conditions: competitive antagonist, Thomsen and Suzdak 1993; cited from earlier work
[3] = tested on: responses evoked by the ionotropic glutamate receptor agonist, AMPA; conditions: Mori-Okamoto et al. 1993; cited from earlier work
GABAA = conditions: neurones, nucleus of the Solitary tract; cited from earlier work
currents evoked by AMPA = conditions: neurones, nucleus of the Solitary tract; cited from earlier work
mGluR1a [4] = target: T1, mGluR1a; test: Inhibition of PI-hydrolysis in BHK 570 cells expressing mGluR1a receptors (antagonist activity vs 10 μM glutamate); assay type: cell-based
mGluR1a [5] = target: T1, mGluR1a; test: Testing for non competitiveness: mGluR1a-mediated PI-hydrolysis, glutamate dose-response with and without antagonist; assay type: cell-based; conditions: for effect on maximal response for glutamate / effect on the potency of glutamate / pharmacological profile: BHK cells expressing mGluR1a; for Emax: basal subtracted
mGluR1a [6] = target: T1, mGluR1a; test: [3H]Glutamate binding to mGluR1a; conditions: BHK cells expressing mGluR1a
Protocol: Membranes prepared from BHK cells expressing mGluR1a were prepared as described (Thomsen, C. et al. (1993), Brain Res. 619, 22-28). […] IC50 values were calculated by a non-linear regression analysis using the GraphPad-Prism program (I.S.I., Philadelphia). Inhibitory constants (Ki) were calculated from the IC50 values using the equation: […]

KAIN = test: Affinity for KAIN receptor (Table 3); assay type: binding
CNQX = test: Affinity for CNQX receptor (Table 3); assay type: binding
TCP = test: Affinity for TCP receptor (Table 3); assay type: binding
AMPA = test: Affinity for AMPA receptor (Table 3); assay type: binding
CPP = test: Affinity for CPP receptor (Table 3); assay type: binding
Bz = test: Affinity for Bz receptor (Table 3); assay type: binding
[7] = tested on: metabotropic glutamate receptor at the subtypes mGluR1 and mGluR5; conditions: Thomsen and Suzdak 1993; cited from earlier work
[8] = tested on: metabotropic glutamate receptor; conditions: cited from earlier work
mGluR1/mGluR5 = conditions: Mori-Okamoto et al. 1993; cited from earlier work
mGluR1α = conditions: 1 mM, BHK cells expressing mGluR1α; cited from earlier work
control BHK cells = conditions: 1 mM; cited from earlier work
MCAO model in mice = conditions: Chiamulera et al. 1992; cited from earlier work
[9] = tested on: release of dopamine in the rat brain; conditions: Sacaan et al. 1992; cited from earlier work
nerve cell cultures = conditions: Koh et al. 1991; cited from earlier work
[10] = read-out: response to glutamate relative to the maximal response evoked by 300 μM glutamate, antagonist 10 μM, glutamate 0
[11] = read-out: response to glutamate relative to the maximal response evoked by 300 μM glutamate, antagonist 10 μM, glutamate 3
[12] = read-out: response to glutamate relative to the maximal response evoked by 300 μM glutamate, antagonist 10 μM, glutamate 10
[13] = read-out: response to glutamate relative to the maximal response evoked by 300 μM glutamate, antagonist 10 μM, glutamate 30
[14] = read-out: response to glutamate relative to the maximal response evoked by 300 μM glutamate, antagonist 10 μM, glutamate 100
[15] = read-out: response to glutamate relative to the maximal response evoked by 300 μM glutamate, antagonist 10 μM, glutamate 300

T1 sequence (P23385 19-1199): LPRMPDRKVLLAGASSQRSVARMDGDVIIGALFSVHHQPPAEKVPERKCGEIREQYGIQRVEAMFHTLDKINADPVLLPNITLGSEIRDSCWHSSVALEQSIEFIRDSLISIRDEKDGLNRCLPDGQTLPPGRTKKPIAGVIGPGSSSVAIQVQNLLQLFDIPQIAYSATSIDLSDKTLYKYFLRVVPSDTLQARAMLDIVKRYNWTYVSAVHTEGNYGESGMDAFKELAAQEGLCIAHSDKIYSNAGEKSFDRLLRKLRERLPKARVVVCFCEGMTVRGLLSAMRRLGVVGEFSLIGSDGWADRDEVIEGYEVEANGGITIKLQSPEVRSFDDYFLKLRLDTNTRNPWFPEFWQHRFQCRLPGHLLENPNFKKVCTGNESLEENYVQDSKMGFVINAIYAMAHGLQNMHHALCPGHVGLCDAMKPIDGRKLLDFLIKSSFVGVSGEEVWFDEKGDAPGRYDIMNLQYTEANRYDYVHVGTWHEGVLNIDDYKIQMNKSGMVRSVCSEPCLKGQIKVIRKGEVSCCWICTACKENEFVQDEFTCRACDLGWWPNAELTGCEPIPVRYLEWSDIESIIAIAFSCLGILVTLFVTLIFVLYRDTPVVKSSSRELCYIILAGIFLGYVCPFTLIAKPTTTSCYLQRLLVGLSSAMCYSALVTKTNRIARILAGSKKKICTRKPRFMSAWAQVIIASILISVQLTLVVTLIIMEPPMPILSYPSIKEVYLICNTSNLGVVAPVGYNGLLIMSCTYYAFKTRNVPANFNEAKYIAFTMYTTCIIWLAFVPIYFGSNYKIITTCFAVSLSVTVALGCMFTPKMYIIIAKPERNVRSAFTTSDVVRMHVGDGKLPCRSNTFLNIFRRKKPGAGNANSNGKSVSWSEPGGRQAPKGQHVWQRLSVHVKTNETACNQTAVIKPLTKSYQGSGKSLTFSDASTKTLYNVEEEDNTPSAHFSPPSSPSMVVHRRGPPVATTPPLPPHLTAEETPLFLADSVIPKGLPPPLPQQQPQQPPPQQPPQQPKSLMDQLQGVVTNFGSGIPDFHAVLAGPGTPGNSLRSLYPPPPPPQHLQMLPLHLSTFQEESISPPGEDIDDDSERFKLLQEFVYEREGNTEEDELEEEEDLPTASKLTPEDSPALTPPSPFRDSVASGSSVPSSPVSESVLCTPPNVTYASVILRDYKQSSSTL

N[C@@]1(C(=O)O)CC[C@@H](C(=O)O)C1 (relative stereo) [(±)-trans-ACPD]
effect on NMDA-induced responses (NMDA-induced responses): enhanced

NC(C(=O)O)c1ccc(C(=O)O)c(O)c1 (stereo not shown) [4-carboxy-3-hydroxyphenylglycine]
effect on maximal response to glutamate (mGluR1a [1]): not affected | effect on potency of glutamate to stimulate PI-hydrolysis (mGluR1a [1]): decreased | displacement of [3H]glutamate binding (mGluR1a [2]): displaced [^3 H]glutamate binding from mGluR1a with an affinity which was similar to the functional antagonist potency

N[C@@]1(C(=O)O)CC[C@@H](C(=O)O)C1 [(1S,3R)-ACPD]
effect on responses evoked by AMPA [3]: suppress responses evoked by the ionotropic glutamate receptor agonist, AMPA | effect on GABAA-mediated currents (GABAA): attenuated | effect on currents evoked by AMPA (currents evoked by AMPA): potentiated

CCOC(=O)C(C#N)=Cc1c(Cl)n(Cc2ccccc2)c2ccccc12 [Compound 1a, Ethyl 2-cyano-3-(1-benzyl-2-chloro-3-indolyl)acrylate]
IC50 (mGluR1a [4]): 2.2 µM

O=C(O)c1cc2c3ccccc3n(Cc3ccccc3)c2nc1N1CCOCC1 [Compound 3b, 9-Benzyl-2-morpholinopyridino[2,3-b]indole-3-carboxylic acid]
IC50 (mGluR1a [4]): 10 µM | effect on maximal response for glutamate (mGluR1a [5]): dose-dependently decreased the maximal response for glutamate | effect on the potency of glutamate (mGluR1a [5]): did not affect the potency of glutamate | pharmacological profile (mGluR1a [5]): non-competitive antagonists | Emax (mGluR1a [5]; [10]): 2% | Emax (mGluR1a [5]; [11]): 5% | Emax (mGluR1a [5]; [12]): 16% | Emax (mGluR1a [5]; [13]): 53% | Emax (mGluR1a [5]; [14]): 75% | Emax (mGluR1a [5]; [15]): 77% | displacement of [3H]glutamate binding (mGluR1a [6]): did not displace

O=C(O)c1cc2c3ccccc3n(Cc3ccccc3)c2s1 [Compound 8, 8-Benzylthieno[2,3-b]indole-2-carboxylic acid]
IC50 (KAIN): 870 µM | IC50 (CNQX): > 980 µM | IC50 (TCP): > 980 µM | IC50 (mGluR1a [4]): 21 µM | receptor selectivity for mGluR1a (mGluR1a [4]; based on Table 3, criterion 5-fold more potent at mGluR1a): considered selective for mGluR1a | IC50 (AMPA): > 980 µM | IC50 (CPP): 300 µM | effect on maximal response for glutamate (mGluR1a [5]): dose-dependently decreased the maximal response for glutamate | effect on the potency of glutamate (mGluR1a [5]): did not affect the potency of glutamate | pharmacological profile (mGluR1a [5]): non-competitive antagonists | Emax (mGluR1a [5]; [10]): 2% | Emax (mGluR1a [5]; [11]): 5% | Emax (mGluR1a [5]; [12]): 35% | Emax (mGluR1a [5]; [13]): 65% | Emax (mGluR1a [5]; [14]): 92% | Emax (mGluR1a [5]; [15]): 89% | Emax (mGluR1a [5]; read-out: response to glutamate relative to the maximal response evoked by 300 μM glutamate, antagonist 30 μM, glutamate 0): 2% | Emax (mGluR1a [5]; read-out: response to glutamate relative to the maximal response evoked by 300 μM glutamate, antagonist 30 μM, glutamate 3): 4% | Emax (mGluR1a [5]; read-out: response to glutamate relative to the maximal response evoked by 300 μM glutamate, antagonist 30 μM, glutamate 10): 22% | Emax (mGluR1a [5]; read-out: response to glutamate relative to the maximal response evoked by 300 μM glutamate, antagonist 30 μM, glutamate 30): 58% | Emax (mGluR1a [5]; read-out: response to glutamate relative to the maximal response evoked by 300 μM glutamate, antagonist 30 μM, glutamate 100): 64% | Emax (mGluR1a [5]; read-out: response to glutamate relative to the maximal response evoked by 300 μM glutamate, antagonist 30 μM, glutamate 300): 66% | Emax (mGluR1a [5]; read-out: response to glutamate relative to the maximal response evoked by 300 μM glutamate, antagonist 100 μM, glutamate 0): 5% | Emax (mGluR1a [5]; read-out: response to glutamate relative to the maximal response evoked by 300 μM glutamate, antagonist 100 μM, glutamate 3): 2% | Emax (mGluR1a [5]; read-out: response to glutamate relative to the maximal response evoked by 300 μM glutamate, antagonist 100 μM, glutamate 10): 1% | Emax (mGluR1a [5]; read-out: response to glutamate relative to the maximal response evoked by 300 μM glutamate, antagonist 100 μM, glutamate 30): 24% | Emax (mGluR1a [5]; read-out: response to glutamate relative to the maximal response evoked by 300 μM glutamate, antagonist 100 μM, glutamate 100): 34% | Emax (mGluR1a [5]; read-out: response to glutamate relative to the maximal response evoked by 300 μM glutamate, antagonist 100 μM, glutamate 300): 38% | displacement of [3H]glutamate binding (mGluR1a [6]): did not displace | IC50 (Bz): 471 µM

c1ccc(Cn2c3ccccc3c3cc(-c4nnn[nH]4)sc32)cc1 [Compound 25, 8-Benzyl-2-(5-tetrazolyl)thieno[2,3-b]indole]
IC50 (mGluR1a [4]): 9 µM

Cn1c2ccccc2c2cc(C(=O)N3CCOCC3)sc21 [Compound 27, 8-Methyl-2-morpholinocarbonylthieno[2,3-b]indole]
IC50 (mGluR1a [4]): 5.3 µM

CN1CCN(C(=O)c2cc3c4ccccc4n(C)c3s2)CC1 [Compound 31, 8-Methyl-2-(4-methyl-1-piperazinylcarbonyl)thieno[2,3-b]indole]
IC50 (mGluR1a [4]): 36 µM

Cn1c2ccc(Cl)cc2c2cc(C(=O)O)sc21 [Compound 54, 5-Chloro-8-methylthieno[2,3-b]indole-2-carboxylic acid]
IC50 (mGluR1a [4]): 7.2 µM

N[C@H](C(=O)O)c1ccc(C(=O)O)c(O)c1 [Compound S-4C3HPG, S-4-carboxy-3-hydroxyphenyl glycine]
antagonism of trans ACPD stimulated phosphoinositide hydrolysis [7]: antagonise trans ACPD stimulated phosphoinositide hydrolysis

N[C@H](C(=O)O)c1ccc(C(=O)O)cc1 [Compound S-4CPG, S-4-carboxyphenyl glycine]
antagonism of trans ACPD stimulated phosphoinositide hydrolysis [7]: antagonise trans ACPD stimulated phosphoinositide hydrolysis

N[C@@H](CP(=O)(O)O)C(=O)O [L-AP3, L-2-amino-3-phosphonopropionic acid]
activity at metabotropic receptors [8]: partial agonist | antagonism of mGluR1/mGluR5 (mGluR1/mGluR5): antagonist

C[C@@](N)(C(=O)O)c1ccc(C(=O)O)cc1 [S-MCPG, S-alpha-methyl-4-carboxyphenyl glycine]
antagonism of trans ACPD stimulated phosphoinositide hydrolysis [7]: antagonise trans ACPD stimulated phosphoinositide hydrolysis

N[C@@H](CCC(=O)O)C(=O)O [glutamate, L-glutamate]
increase over basal PI-hydrolysis (mGluR1α): 6-8 fold

NC(C(=O)O)c1cc(O)no1 (stereo not shown) [ibotenate]
agonism on the metabotropic glutamate receptor [8]: non-selective agonists

C=C(C)[C@H]1CN[C@H](C(=O)O)[C@H]1CC(=O)O [kainate]
effect on metabotropic glutamate receptors ([8]; selective ionotropic glutamate receptor agonists): little effect

N[C@@H](Cn1oc(=O)[nH]c1=O)C(=O)O [quisqualate]
stimulation of PI-hydrolysis (control BHK cells): no stimulation | increase over basal PI-hydrolysis (mGluR1α): 6-8 fold | agonism on the metabotropic glutamate receptor [8]: non-selective agonists

N[C@@]1(C(=O)O)CC[C@@H](C(=O)O)C1 [trans-ACPD, trans 1S,3R-1-aminocyclopentane-1,3-dicarboxylicacid]
neuroprotection (MCAO model in mice): neuroprotective | effect on release of dopamine [9]: increase release of dopamine | inhibition of NMDA induced neurotoxicity (nerve cell cultures): inhibit NMDA induced neurotoxicity
